The values below come from ChEMBL document CHEMBL3352622, “Folded structure and insertion depth of the frog-skin antimicrobial Peptide esculentin-1b(1-18) in the presence of differently charged membrane-mimicking micelles” (J Nat Prod, 2014).

Calls of active or inactive are those of the source. The calls are words filed in the database; no cut-off is given here. Where a SMILES comes first, the peptide text is derived from it.

For this assay, the system named is Human alphaherpesvirus 1. In words: Antiviral activity against HSV-1 assessed as reduction in infectivity in African green monkey Vero cells after 2 hrs by virus yield reduction assay. The format is functional, organism-based.

As to `CC[C@H](C)[C@H](NC(=O)CN)C(=O)N[C@@H](Cc1ccccc1)C(=O)N[C@@H](CO)C(=O)N[C@@H](CCCCN)C(=O)N[C@@H](CC(C)C)C(=O)N[C@@H](C)C(=O)NCC(=O)N[C@@H](CCCCN)C(=O)N[C@@H](CCCCN)C(=O)N[C@@H](CC(C)C)C(=O)N[C@@H](CCCCN)C(=O)N[C@@H](CC(N)=O)C(=O)N[C@@H](CC(C)C)C(=O)N[C@@H](CC(C)C)C(=O)N[C@H](C(=O)N[C@@H](CO)C(=O)NCC(N)=O)[C@@H](C)CC` (H-GIFSKLAGKKLKNLLISG-NH2), the result was inactive.
